Activity calls are given as the source filed them. No cut-off for these calls is given here.
Key:
Plasmodium berghei [1] = assay: Antiplasmodial activity against GFP-expressing liver stage Plasmodium berghei sporozoites infected in human Huh7 cells preincubated for 1 hr before infection at 1 uM measured after 48 hrs post infection by firefly luciferase reporter gene assay; format: functional; settings: Huh-7
Plasmodium berghei [2] = assay: Antiplasmodial activity against GFP-expressing liver stage Plasmodium berghei sporozoites infected in human Huh7 cells preincubated for 1 hr before infection at 5 uM measured after 48 hrs post infection by firefly luciferase reporter gene assay; format: functional; settings: Huh-7
Plasmodium berghei [3] = assay: Antiplasmodial activity against GFP-expressing liver stage Plasmodium berghei sporozoites infected in human Huh7 cells preincubated for 1 hr before infection at 15 uM measured after 48 hrs post infection by firefly luciferase reporter gene assay; format: functional; settings: Huh-7
Plasmodium berghei [4] = assay: Antiplasmodial activity against GFP-expressing liver stage Plasmodium berghei sporozoites infected in human Huh7 cells preincubated for 1 hr before infection measured after 48 hrs post infection by firefly luciferase reporter gene assay; format: functional, organism-based; settings: Huh-7
[5] = Cytotoxicity against human HuH7 cells up to 15 uM after 48 hrs by Alamar Blue assay; format: cell-based; settings: huh-7, 48 h

CO[C@H]1C=C2[C@@H](CC[C@H](OC(C)=O)C2(C)C)[C@]2(C)CC[C@]3(C)[C@@H]([C@H](C)C[C@H](C=C(C)C)OC(C)=O)CC[C@@]3(C)[C@H]12 [KARAVOATE B]
inhibition at 1 µM (Plasmodium berghei [1]): 60%
inhibition at 5 µM (Plasmodium berghei [2]): 96%
inhibition at 15 µM (Plasmodium berghei [3]): 99%
inhibition (Plasmodium berghei [4]): Dose-dependent effect
Activity [5]: Non-toxic

CCCC(=O)O[C@@H](C=C(C)C)C[C@@H](C)[C@H]1CC[C@@]2(C)[C@@H]3[C@@H](OC)C=C4[C@@H](CC[C@H](O)C4(C)C)[C@]3(C)CC[C@]12C [KARAVOATE E]
inhibition at 1 µM (Plasmodium berghei [1]): 39%
inhibition at 5 µM (Plasmodium berghei [2]): 89%
inhibition at 15 µM (Plasmodium berghei [3]): 99%
Activity [5]: Toxic

CO[C@H]1C=C2[C@@H](CC[C@H](O)[C@]2(C)CO)[C@]2(C)CC[C@]3(C)[C@@H]([C@H](C)C[C@@H](O)C=C(C)C)CC[C@@]3(C)[C@H]12 [BALSAMINOL B]
inhibition at 5 µM (Plasmodium berghei [2]): 47%
Activity [5]: Non-toxic

COc1ccc(C(=O)O[C@H]2CC[C@@H]3C(=C[C@H](OC)[C@@H]4[C@@]3(C)CC[C@]3(C)[C@@H]([C@H](C)C[C@H](C=C(C)C)OC(=O)c5ccc(OC)cc5)CC[C@@]43C)C2(C)C)cc1 [KARAVOATE N]
inhibition (Plasmodium berghei [1]): inactive
inhibition (Plasmodium berghei [2]): inactive
inhibition (Plasmodium berghei [3]): inactive
Activity [5]: Non-toxic

CC(=O)O[C@H]1C=C2[C@@H](CC[C@H](OC(C)=O)C2(C)C)[C@]2(C)CC[C@]3(C)[C@@H]([C@H](C)C[C@H](C=C(C)C)OC(C)=O)CC[C@@]3(C)[C@H]12 [TRIACETYLBALSAMINOL F]
inhibition (Plasmodium berghei [1]): Active
inhibition (Plasmodium berghei [2]): Active
inhibition (Plasmodium berghei [3]): Active
Activity [5]: Non-toxic

CC(C)=C[C@H](O)C[C@@H](C)[C@H]1CC[C@@]2(C)[C@@H]3[C@@H](O)C=C4[C@@H](CC[C@H](O)C4(C)C)[C@]3(C)CC[C@]12C [BALSAMINOL F]
inhibition (Plasmodium berghei [1]): Active
inhibition at 5 µM (Plasmodium berghei [2]): 32%
inhibition (Plasmodium berghei [3]): Active
Activity [5]: Non-toxic

COc1ccc(C(=O)O[C@@H](C=C(C)C)C[C@@H](C)[C@H]2CC[C@@]3(C)[C@@H]4[C@@H](OC)C=C5[C@@H](CC[C@H](O)C5(C)C)[C@]4(C)CC[C@]23C)cc1 [KARAVOATE M]
inhibition at 1 µM (Plasmodium berghei [1]): 14%
inhibition at 5 µM (Plasmodium berghei [2]): 87%
inhibition at 15 µM (Plasmodium berghei [3]): 99%
Activity [5]: Non-toxic

CO[C@H]1C=C2[C@@H](CC[C@H](OC(=O)c3ccc([N+](=O)[O-])cc3)C2(C)C)[C@]2(C)CC[C@]3(C)[C@@H]([C@H](C)C[C@H](C=C(C)C)OC(=O)c4ccc([N+](=O)[O-])cc4)CC[C@@]3(C)[C@H]12 [KARAVOATE J]
inhibition (Plasmodium berghei [1]): inactive
inhibition (Plasmodium berghei [2]): inactive
inhibition (Plasmodium berghei [3]): inactive
Activity [5]: Non-toxic

CO[C@H]1C=C2[C@@H](CC[C@H](O)C2(C)C)[C@]2(C)CC[C@]3(C)[C@@H]([C@H](C)C[C@H](C=C(C)C)OC(C)=O)CC[C@@]3(C)[C@H]12 [KARAVOATE A]
inhibition at 1 µM (Plasmodium berghei [1]): 28%
inhibition at 5 µM (Plasmodium berghei [2]): 93%
Activity [5]: Toxic

CO[C@H]1C=C2[C@@H](CC[C@H](OC(=O)c3ccccc3)C2(C)C)[C@]2(C)CC[C@]3(C)[C@@H]([C@H](C)C[C@H](C=C(C)C)OC(=O)c4ccccc4)CC[C@@]3(C)[C@H]12 [KARAVOATE H]
inhibition (Plasmodium berghei [1]): inactive
inhibition (Plasmodium berghei [2]): inactive
inhibition (Plasmodium berghei [3]): inactive
Activity [5]: Non-toxic

COC(C)(C)/C=C/C[C@@H](C)[C@H]1CC[C@@]2(C)[C@@H]3[C@@H](O[C@H]4O[C@@H](CO)[C@H](O)[C@H](O)[C@@H]4O)C=C4[C@@H](CC[C@H](O)C4(C)C)[C@]3(C)CC[C@]12C [BALSAMINOSIDE A]
Activity [5]: Toxic

CCCC(=O)O[C@H]1CC[C@@H]2C(=C[C@H](OC)[C@@H]3[C@@]2(C)CC[C@]2(C)[C@@H]([C@H](C)C[C@H](C=C(C)C)OC(=O)CCC)CC[C@@]32C)C1(C)C [KARAVOATE F]
inhibition at 1 µM (Plasmodium berghei [1]): 11%
inhibition at 5 µM (Plasmodium berghei [2]): 64%
inhibition at 15 µM (Plasmodium berghei [3]): 82%
Activity [5]: Non-toxic

CCC(=O)O[C@H]1CC[C@@H]2C(=C[C@H](OC)[C@@H]3[C@@]2(C)CC[C@]2(C)[C@@H]([C@H](C)C[C@H](C=C(C)C)OC(=O)CC)CC[C@@]32C)C1(C)C [KARAVOATE D]
inhibition at 1 µM (Plasmodium berghei [1]): 34%
inhibition at 5 µM (Plasmodium berghei [2]): 82%
inhibition at 15 µM (Plasmodium berghei [3]): 93%
Activity [5]: Non-toxic

CCC(=O)O[C@@H](C=C(C)C)C[C@@H](C)[C@H]1CC[C@@]2(C)[C@@H]3[C@@H](OC)C=C4[C@@H](CC[C@H](O)C4(C)C)[C@]3(C)CC[C@]12C [KARAVOATE C]
inhibition at 1 µM (Plasmodium berghei [1]): 13%
inhibition at 5 µM (Plasmodium berghei [2]): 60%
Activity [5]: Non-toxic

CO[C@H]1C=C2[C@@H](CC[C@H](O)C2(C)C)[C@]2(C)CC[C@]3(C)[C@@H]([C@H](C)C[C@@H](O)C=C(C)C)CC[C@@]3(C)[C@H]12 [KARAVELAGENIN C]
inhibition at 1 µM (Plasmodium berghei [1]): 27%
inhibition at 5 µM (Plasmodium berghei [2]): 73%
inhibition at 15 µM (Plasmodium berghei [3]): 99%
Activity [5]: Non-toxic

CO[C@H]1C=C2[C@@H](CC[C@H](O)C2(C)C)[C@]2(C)CC[C@]3(C)[C@@H]([C@H](C)C[C@H](C=C(C)C)OC(=O)c4ccc([N+](=O)[O-])cc4)CC[C@@]3(C)[C@H]12 [KARAVOATE I]
inhibition at 1 µM (Plasmodium berghei [1]): 34%
inhibition at 5 µM (Plasmodium berghei [2]): 88%
inhibition at 15 µM (Plasmodium berghei [3]): 97%
Activity [5]: Non-toxic

Source: ChEMBL document CHEMBL3351681, “Dual-stage triterpenoids from an African medicinal plant targeting the malaria parasite” (Bioorg Med Chem, 2014)
